Laboratory results from paper PMC12698594, “A natural PCID2-Targeting compound suppresses hepatocellular carcinoma progression: evidence from structure-based discovery and biological evaluation” (Frontiers in Pharmacology, 2025).

Biological target: T1, PCID2 (PCI-domain containing protein 2) (Homo sapiens, UniProt Q5JVF3)
T1 construct: amine-type direct coupling to CM5 chip; DSS1 not mentioned in the SPR test
Assay: SPR (Biacore, CM5 chip, […] Langmuir global fit)
Type: binding

T1 sequence (Q5JVF3 2-399): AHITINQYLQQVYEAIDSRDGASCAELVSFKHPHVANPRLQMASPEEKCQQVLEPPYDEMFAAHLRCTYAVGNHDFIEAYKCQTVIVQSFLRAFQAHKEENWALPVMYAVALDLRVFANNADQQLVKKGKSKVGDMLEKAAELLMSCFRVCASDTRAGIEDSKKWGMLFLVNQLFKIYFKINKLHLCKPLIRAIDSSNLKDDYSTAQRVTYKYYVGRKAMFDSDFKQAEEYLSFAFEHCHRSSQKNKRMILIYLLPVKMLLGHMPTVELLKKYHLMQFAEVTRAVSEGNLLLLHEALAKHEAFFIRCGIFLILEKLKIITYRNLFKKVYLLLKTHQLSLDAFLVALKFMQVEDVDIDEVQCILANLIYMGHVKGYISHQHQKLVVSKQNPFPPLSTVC

Kd: 5.27 µM
Structure (SMILES): O=C(OC[C@H]1O[C@@H](OC(=O)c2cc(O)c(O)c(O)c2)[C@H](OC(=O)c2cc(O)c(O)c(O)c2)[C@@H](OC(=O)c2cc(O)c(O)c(O)c2)[C@@H]1OC(=O)c1cc(O)c(O)c(O)c1)c1cc(O)c(O)c(O)c1 [#02, 1,2,3,4,6-Penta-O-galloyl-β-D-glucose]
